The values that follow come from ChEMBL document CHEMBL5291721, “A preclinical secondary pharmacology resource illuminates target-adverse drug reaction associations of marketed drugs” (Nat Commun, 2023).

Experiment [1] concerns the target T1, Amine oxidase [flavin-containing] A (Homo sapiens, UniProt P21397).
T1 sequence (P21397 whole entry): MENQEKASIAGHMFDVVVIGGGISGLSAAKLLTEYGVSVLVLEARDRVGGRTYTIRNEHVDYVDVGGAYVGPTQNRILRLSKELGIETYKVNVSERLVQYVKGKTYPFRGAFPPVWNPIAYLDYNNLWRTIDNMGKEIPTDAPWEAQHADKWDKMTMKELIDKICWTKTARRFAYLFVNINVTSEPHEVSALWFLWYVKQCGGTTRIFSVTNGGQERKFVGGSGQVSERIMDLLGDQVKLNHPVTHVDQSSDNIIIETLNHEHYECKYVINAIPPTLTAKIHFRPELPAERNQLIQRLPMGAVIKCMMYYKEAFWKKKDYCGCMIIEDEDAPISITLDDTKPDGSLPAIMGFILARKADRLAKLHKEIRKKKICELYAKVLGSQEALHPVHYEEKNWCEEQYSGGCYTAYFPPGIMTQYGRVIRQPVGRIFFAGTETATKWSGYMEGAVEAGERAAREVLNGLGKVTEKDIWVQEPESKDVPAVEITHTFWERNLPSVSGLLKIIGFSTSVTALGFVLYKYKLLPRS
Format: functional.

The target in experiment [2] is Prostaglandin G/H synthase 1 (Homo sapiens, UniProt P23219). Format: functional.
Chain of Prostaglandin G/H synthase 1 (Homo sapiens, UniProt P23219) (P23219 whole entry): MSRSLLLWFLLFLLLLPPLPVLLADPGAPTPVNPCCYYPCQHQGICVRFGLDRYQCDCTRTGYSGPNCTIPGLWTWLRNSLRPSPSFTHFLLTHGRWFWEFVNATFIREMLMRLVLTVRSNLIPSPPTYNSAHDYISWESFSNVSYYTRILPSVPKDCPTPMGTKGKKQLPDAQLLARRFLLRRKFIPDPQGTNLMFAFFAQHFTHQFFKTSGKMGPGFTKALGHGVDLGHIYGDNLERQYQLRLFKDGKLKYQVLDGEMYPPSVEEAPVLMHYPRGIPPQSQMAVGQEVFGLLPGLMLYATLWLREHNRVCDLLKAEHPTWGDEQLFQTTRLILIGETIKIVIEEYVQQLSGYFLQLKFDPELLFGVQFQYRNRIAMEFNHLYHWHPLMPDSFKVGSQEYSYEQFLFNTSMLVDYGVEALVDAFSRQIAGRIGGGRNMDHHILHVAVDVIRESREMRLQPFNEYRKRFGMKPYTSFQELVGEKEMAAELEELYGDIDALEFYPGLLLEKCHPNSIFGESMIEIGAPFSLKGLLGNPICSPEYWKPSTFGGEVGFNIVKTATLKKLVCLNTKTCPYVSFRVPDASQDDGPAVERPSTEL
For experiment [3], the target named is cGMP-inhibited 3',5'-cyclic phosphodiesterase 3A (Homo sapiens, UniProt Q14432). In kind it is functional.
Chain of cGMP-inhibited 3',5'-cyclic phosphodiesterase 3A (Q14432 whole entry): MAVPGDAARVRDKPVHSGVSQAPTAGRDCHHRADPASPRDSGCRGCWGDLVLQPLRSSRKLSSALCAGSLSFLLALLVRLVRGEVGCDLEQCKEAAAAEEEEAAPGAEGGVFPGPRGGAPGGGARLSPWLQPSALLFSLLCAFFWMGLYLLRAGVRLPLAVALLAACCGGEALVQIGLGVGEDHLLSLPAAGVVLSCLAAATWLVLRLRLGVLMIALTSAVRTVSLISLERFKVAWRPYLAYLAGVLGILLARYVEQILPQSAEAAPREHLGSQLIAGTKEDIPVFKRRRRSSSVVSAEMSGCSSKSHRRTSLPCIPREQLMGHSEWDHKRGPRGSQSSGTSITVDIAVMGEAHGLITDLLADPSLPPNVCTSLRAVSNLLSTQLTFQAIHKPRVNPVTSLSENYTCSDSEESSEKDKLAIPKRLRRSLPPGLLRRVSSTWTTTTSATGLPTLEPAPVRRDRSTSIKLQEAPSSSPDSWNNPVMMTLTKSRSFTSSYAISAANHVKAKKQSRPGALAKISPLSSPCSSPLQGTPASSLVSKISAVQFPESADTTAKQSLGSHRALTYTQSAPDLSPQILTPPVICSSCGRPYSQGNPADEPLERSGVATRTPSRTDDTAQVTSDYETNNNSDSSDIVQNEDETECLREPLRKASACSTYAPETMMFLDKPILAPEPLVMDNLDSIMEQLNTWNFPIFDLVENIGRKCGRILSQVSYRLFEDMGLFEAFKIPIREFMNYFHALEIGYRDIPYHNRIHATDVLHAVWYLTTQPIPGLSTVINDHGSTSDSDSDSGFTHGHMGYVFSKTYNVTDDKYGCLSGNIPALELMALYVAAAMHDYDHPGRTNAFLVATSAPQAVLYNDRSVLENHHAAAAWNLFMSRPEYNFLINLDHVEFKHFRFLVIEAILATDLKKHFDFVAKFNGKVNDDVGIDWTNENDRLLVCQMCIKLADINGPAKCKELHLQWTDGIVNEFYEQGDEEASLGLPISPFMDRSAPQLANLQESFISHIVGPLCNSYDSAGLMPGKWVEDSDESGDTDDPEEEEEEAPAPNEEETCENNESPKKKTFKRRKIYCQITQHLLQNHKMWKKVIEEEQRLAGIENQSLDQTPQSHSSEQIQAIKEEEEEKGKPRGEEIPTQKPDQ
Experiment [4] addresses T2, Alpha-1A adrenergic receptor (Homo sapiens, UniProt P35348).
T2 sequence (P35348 whole entry): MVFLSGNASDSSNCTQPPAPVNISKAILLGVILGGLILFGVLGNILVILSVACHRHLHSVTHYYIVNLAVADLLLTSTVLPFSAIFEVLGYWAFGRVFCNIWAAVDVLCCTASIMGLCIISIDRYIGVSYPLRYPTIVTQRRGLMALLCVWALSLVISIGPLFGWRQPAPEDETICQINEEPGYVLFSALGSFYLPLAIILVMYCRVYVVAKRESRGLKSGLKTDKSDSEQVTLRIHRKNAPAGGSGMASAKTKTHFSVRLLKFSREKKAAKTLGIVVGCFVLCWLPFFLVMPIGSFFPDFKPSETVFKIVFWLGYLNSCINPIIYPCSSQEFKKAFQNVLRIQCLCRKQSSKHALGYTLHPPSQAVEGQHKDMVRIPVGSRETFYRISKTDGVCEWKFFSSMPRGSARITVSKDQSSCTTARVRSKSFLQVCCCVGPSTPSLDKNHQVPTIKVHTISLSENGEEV
In kind it is functional, cell-based.

Experiment [5] concerns the target T3, Muscarinic acetylcholine receptor M2 (Homo sapiens, UniProt P08172).
T3 sequence (P08172 whole entry): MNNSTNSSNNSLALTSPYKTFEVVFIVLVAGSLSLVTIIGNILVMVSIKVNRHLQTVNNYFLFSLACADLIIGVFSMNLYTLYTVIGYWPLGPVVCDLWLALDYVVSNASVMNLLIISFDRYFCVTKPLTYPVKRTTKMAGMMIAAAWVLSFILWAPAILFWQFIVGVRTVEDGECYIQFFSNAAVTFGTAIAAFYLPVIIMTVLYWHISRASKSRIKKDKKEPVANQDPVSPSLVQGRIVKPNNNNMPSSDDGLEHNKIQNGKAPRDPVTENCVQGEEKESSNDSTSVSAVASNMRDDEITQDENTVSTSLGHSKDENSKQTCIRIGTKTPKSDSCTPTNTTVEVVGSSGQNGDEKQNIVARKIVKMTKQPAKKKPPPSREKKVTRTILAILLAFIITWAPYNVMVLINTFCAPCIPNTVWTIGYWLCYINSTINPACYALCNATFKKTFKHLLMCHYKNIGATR

In experiment [6] the target is Histamine H2 receptor (Homo sapiens, UniProt P25021). Format: functional, cell-based.
Chain of Histamine H2 receptor (P25021 whole entry): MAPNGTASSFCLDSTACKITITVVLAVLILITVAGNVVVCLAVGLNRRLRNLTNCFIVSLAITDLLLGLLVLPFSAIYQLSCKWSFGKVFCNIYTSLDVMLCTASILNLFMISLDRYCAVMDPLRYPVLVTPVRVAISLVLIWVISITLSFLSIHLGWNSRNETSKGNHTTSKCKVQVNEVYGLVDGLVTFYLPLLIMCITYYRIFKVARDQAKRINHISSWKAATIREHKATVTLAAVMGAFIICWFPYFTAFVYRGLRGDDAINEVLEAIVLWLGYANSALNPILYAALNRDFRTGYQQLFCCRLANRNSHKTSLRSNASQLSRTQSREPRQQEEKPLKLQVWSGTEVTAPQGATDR
The target in experiment [7] is T2, Alpha-1A adrenergic receptor. Format: functional, cell-based. This is another data set of the same source.
Experiment [8] deals with T4, Prostaglandin G/H synthase 1 (Rattus norvegicus, UniProt Q63921).
T4 sequence (Q63921 whole entry): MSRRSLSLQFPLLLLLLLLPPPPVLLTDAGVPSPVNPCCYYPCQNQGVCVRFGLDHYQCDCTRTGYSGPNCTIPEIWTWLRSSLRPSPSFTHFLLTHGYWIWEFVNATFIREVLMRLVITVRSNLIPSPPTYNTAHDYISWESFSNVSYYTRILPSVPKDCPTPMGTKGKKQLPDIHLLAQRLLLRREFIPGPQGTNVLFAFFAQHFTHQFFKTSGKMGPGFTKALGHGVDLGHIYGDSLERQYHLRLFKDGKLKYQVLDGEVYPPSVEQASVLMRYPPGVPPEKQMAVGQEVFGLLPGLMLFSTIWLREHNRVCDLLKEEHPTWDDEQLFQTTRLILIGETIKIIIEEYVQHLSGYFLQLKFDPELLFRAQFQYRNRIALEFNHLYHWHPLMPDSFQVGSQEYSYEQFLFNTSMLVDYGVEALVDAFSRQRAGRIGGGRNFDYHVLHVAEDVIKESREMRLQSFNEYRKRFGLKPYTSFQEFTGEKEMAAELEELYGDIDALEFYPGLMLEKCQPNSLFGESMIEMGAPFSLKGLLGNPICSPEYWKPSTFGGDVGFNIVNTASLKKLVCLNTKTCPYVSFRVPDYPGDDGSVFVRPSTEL
Format: functional.

Experiment [9] deals with Cannabinoid receptor 1 (Homo sapiens, UniProt P21554). In kind it is functional, cell-based.
Chain of Cannabinoid receptor 1 (P21554 whole entry): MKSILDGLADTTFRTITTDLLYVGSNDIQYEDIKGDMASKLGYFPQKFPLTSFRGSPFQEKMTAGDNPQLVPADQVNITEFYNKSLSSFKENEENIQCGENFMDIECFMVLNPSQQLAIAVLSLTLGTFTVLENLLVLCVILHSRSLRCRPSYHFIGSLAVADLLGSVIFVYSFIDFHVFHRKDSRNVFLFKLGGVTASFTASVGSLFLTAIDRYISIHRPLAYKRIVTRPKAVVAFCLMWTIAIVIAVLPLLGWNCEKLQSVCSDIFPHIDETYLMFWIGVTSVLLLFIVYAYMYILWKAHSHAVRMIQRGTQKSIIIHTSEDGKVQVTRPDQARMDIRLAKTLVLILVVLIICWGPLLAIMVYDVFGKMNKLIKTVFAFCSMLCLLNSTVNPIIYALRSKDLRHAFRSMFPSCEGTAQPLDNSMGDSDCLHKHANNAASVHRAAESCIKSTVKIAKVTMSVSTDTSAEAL
The target of experiment [10] is T5, Adenosine receptor A1 (Homo sapiens, UniProt P30542).
T5 sequence (P30542 whole entry): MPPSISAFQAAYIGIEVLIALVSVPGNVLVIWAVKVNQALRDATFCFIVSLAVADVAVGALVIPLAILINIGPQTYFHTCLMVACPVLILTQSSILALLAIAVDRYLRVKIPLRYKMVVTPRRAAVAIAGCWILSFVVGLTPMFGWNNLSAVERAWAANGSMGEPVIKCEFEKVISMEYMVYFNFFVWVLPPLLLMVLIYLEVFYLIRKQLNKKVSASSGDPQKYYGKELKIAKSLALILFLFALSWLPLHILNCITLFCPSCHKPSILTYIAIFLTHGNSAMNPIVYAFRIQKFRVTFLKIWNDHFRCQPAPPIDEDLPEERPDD
Also: assay procedure not described here.

As for `CCCCc1oc2ccc(NS(C)(=O)=O)cc2c1C(=O)c1ccc(OCCCN(CCCC)CCCC)cc1` [DRONEDARONE], the AC50 – broadly, the concentration at which the activity in the assay is half-maximal – in experiment [1] was > 30 µM; in experiment [2] it was > 30 µM; in experiment [3] it was > 30 µM; in experiment [4] it was > 30 µM; in experiment [5], 2.39 µM.

For the compound `CC(C)C[C@H](NC(=O)[C@@H](O)[C@H](N)Cc1ccccc1)C(=O)O` [UBENIMEX], the AC50 in experiment [1], in experiment [2], in [6], in experiment [7], in experiment [3] and in experiment [8] was > 30 µM throughout. Besides, the AC50 in experiment [9] and in experiment [5] was > 30 µM in each case.

As for `O=C(O)Cc1ccccc1Nc1c(Cl)cccc1Cl` [DICLOFENAC], the AC50 in experiment [1] is > 3 µM; in experiment [6], > 10 µM; in experiment [7], > 30 µM; in experiment [3], > 3 µM; in [9] it was > 30 µM; in experiment [4] it was > 3 µM. In addition, the half-maximal activity concentration (AC50) was > 30 µM in [10] and > 3 µM in experiment [5].

`COc1ccc2[nH]c([S+]([O-])Cc3ncc(C)c(OC)c3C)nc2c1` (stereo unspecified) [OMEPRAZOLE]: the half-maximal activity concentration (AC50) in experiment [1] was > 30 µM; in [2], > 30 µM; in experiment [3] it was > 30 µM; in experiment [4], > 30 µM; in experiment [5], 15.7 µM.

Regarding `CC[C@]12CCCN3CCc4c(n(c5ccccc45)[C@@](O)(C(=O)OC)C1)[C@@H]32` [VINCAMINE], the AC50 in experiment [1], in [2], in experiment [3], in experiment [4] and in [5] was > 30 µM each time.

In the case of `CC(C)[C@@H]1CC[C@@H](C)C[C@H]1O` [LEVOMENTHOL], the AC50 in experiment [1], in experiment [2], in experiment [3], in experiment [4] and in experiment [5] was > 30 µM in each case.

For `CC(=O)NO` [ACETOHYDROXAMIC ACID], the concentration at half-maximal activity (AC50) in experiment [1], in [2], in experiment [3], in experiment [4] and in experiment [5] was > 30 µM throughout.

For `C[C@H]1CN(C[C@H](Cc2ccccc2)C(=O)NCC(=O)O)CC[C@@]1(C)c1cccc(O)c1` [ALVIMOPAN], the AC50 in experiment [1] is > 30 µM; in experiment [2], > 3 µM; in experiment [3], > 30 µM; in experiment [4], > 30 µM; in [5], > 30 µM.

On to `C[N+]1(C)CCCC(OC(=O)C(O)(c2ccccc2)c2ccccc2)C1` (stereo unspecified) [MEPENZOLATE], for which the AC50 in experiment [1], in [2], in experiment [3] and in [4] was > 30 µM each time.

For the compound `COc1c2occc2c(OC)c2c(=O)cc(C)oc12` [KHELLIN], the AC50 in experiment [1], in experiment [2], in [3], in experiment [4] and in [5] was > 30 µM throughout.

On to `N=C(N)N/N=C/c1c(Cl)cccc1Cl` [GUANABENZ], for which the AC50 in experiment [1] was 3.21 µM; in experiment [2], > 30 µM; in experiment [3], > 30 µM; in experiment [4] it was 0.0423 µM; in [5] it was > 30 µM.

For `Cc1ccsc1C(=CCCN1CCC[C@@H](C(=O)O)C1)c1sccc1C` [TIAGABINE], the AC50 in [1], in experiment [2], in experiment [3], in [4] and in experiment [5] was > 30 µM throughout.

With `O=C(O)P(=O)(O)O` [FOSCARNET], the AC50 in [1], in experiment [2], in experiment [3], in [4] and in experiment [5] was > 30 µM each time.

In the case of `O=C(NNCS(=O)(=O)O)c1ccncc1` [METHANIAZIDE], the half-maximal activity concentration (AC50) in [1], in experiment [2], in experiment [3], in experiment [4] and in experiment [5] was > 30 µM each time.

On to `CC(C)NC(=N)NC(=N)Nc1ccc(Cl)c(Cl)c1` [CHLORPROGUANIL], for which the concentration at half-maximal activity (AC50) in experiment [1] was > 30 µM; in experiment [2], > 30 µM; in [6] it was > 30 µM; in experiment [7], 12 µM; in experiment [3], > 30 µM; in [9], > 30 µM. The half-maximal activity concentration (AC50) in experiment [5] is 29.7 µM.

On to `CC(CN1c2ccccc2Sc2ccccc21)N(C)C` (stereo unspecified) [PROMETHAZINE], for which the AC50 was > 30 µM in [1]; > 10 µM in [6]; 1.7 µM in experiment [7]; > 30 µM in experiment [3]; > 30 µM in experiment [8]; > 30 µM in [9]. The AC50 is > 30 µM in [10] and 0.03 µM in experiment [5].

On to `CCC1=C[C@@H]2CN(C1)Cc1c([nH]c3ccccc13)[C@@](C(=O)OC)(c1cc3c(cc1OC)N(C)[C@H]1[C@@](O)(C(=O)OC)[C@H](OC(C)=O)[C@]4(CC)C=CCN5CC[C@]31[C@@H]54)C2` [VINORELBINE], for which the AC50 in experiment [1], in [3], in experiment [4] and in [5] was > 30 µM in each case.

Take `C#C[C@]1(O)C=C[C@H]2[C@@H]3CCC4=CC(=O)CC[C@@H]4[C@H]3CC[C@@]21CC` [GESTODENE]: the AC50 in experiment [1], in [2], in experiment [3] and in experiment [5] was > 30 µM each time.

Consider `CN[C@@H]1[C@H](O[C@H]2[C@H](O[C@H]3[C@H](O)[C@@H](O)[C@H](NC(=N)N)[C@@H](O)[C@@H]3NC(=N)N)O[C@@H](C)[C@]2(O)CO)O[C@@H](CO)[C@H](O)[C@H]1O` [DIHYDROSTREPTOMYCIN], for which the concentration at half-maximal activity (AC50) in [1], in experiment [2], in [3] and in experiment [5] was > 30 µM in each case.

`Nc1c(CC(=O)O)cccc1C(=O)c1ccc(Br)cc1` [BROMFENAC]: the AC50 in experiment [1], in experiment [3], in [4] and in [5] was > 30 µM throughout.
